Results reported in US12144788B2, “Visual cycle modulators” (CASE WESTERN RESERVE UNIVERSITY, priority 2017, dated 2024).

What was measured:
C57BL/6J mice = assay: in vivo dark-adapted ERG recordings after bleach; design: species or system mouse; conditions: gavage 1 day before bleach, doses indicated effective by retinoid analysis
Experimental: FIG. 5 illustrates ERG responses of mice treated with visual cycle modulators. Oral gavage was used to administer vehicle or MB compounds to mice 24 h prior to 10 min light exposure followed by 6 h of dark adaptation. Dark-adapted ERGs were obtained to strobe flash stimuli.
C57BL/6J mice aged 1.5-4 months were anesthetized with ketamine (80 mg/kg) and xylazine (16 mg/kg) after overnight dark adaptation. Mydriatic eye drops were used to dilate the pupil (1% tropicamide; 2.5% phenylephrine). ERGs were obtained using an active electrode that contacted the corneal surface; needle electrodes placed in the cheek and tail provided reference and ground leads, respectively. Strobe stimuli were presented to the dark-adapted eye in an LKC (Gaithersburg, MD) ganzfeld. Responses were amplified, averaged and stored using an LKC UTAS E-3000 signal averaging system.
Baseline dark-adapted ERGs were recorded from each mouse. After a minimum 1 day interval, MB compounds or vehicle were administered by gavage at 9 a.m. The next morning, mydriatic eye drops were used to dilate the pupils and mice were then exposed to a 10-minute 10,000 lux bleach. Mice were dark-adapted for 6 hours, after which ERGs were recorded.
We next examined the impact of these compounds on retinal function, measured using the electroretinogram (ERG). FIG. 5 presents a family of dark-adapted ERGs measured 6 hours after mice underwent a 95% bleach presented 1 day following gavage administration of vehicle or MB compound molecules at doses indicated to be effective by retinoid analysis. […] In comparison, mice administered with MB compound molecules had had reduced amplitude ERGs indicative of incomplete bleaching recovery. […] In response to higher luminance stimuli, reproducible responses were observed. That these reflect dark-adapted cone-mediated responses is supported by their similarity to responses obtained from transducin KO mice which lack rod-mediated activity, while retaining normal cone-mediated responses, and have a very similar ERG phenotype.

Abca4−/−Rdh8−/− mice = assay: protection against light-induced retinal degeneration (OCT, ONL thickness); type: in vivo, mouse
Experimental: FIGS. 7(A-B) illustrate protective effects of MB compounds against light-induced retinal degeneration in Abca4^−/−Rdh8^−/− mice. Drugs were administrated at the indicated doses to 4-6 week-old Abca4^−/−Rdh8^−/− mice (weight ˜20 g) by oral gavage. After a 24 h dark adaptation, mice were exposed to 10,000 lux light for 30 min and then returned to a dark environment for 3 days. (A) Representative OCT images of mice treated with MB compounds. A dramatic decrease in the ONL indicates advanced retinal degeneration. The black scale beside the DMSO image represents 50 μm. (B) Retinal protective effects exerted by MB compounds as quantified by average ONL thickness. Only non-scattering ONL layers were measured. For images in which the ONL layer boundary was obscured due to light scattering, the ONL length was recorded as 0 μm. Error bars represent standard deviations; n=3-5 for each group.
(§1) Abca4^−/−Rdh8^−/− mice on a C57BL/6J background were generated as previously described. Male and female WT mice with C57BL/6J backgrounds were obtained from The Jackson Laboratory. Abca4^−/−Rdh8^−/− mice used in this study were homozygous for the Leu450 allele of Rpe65 as determined by a genotyping protocol published previously and free of Crb1/rd8 and rd/rd mutations Animals were housed either in the animal facility at the Case Western Reserve University School of Medicine, where they received a standard chow diet (LabDiet 5053) and were maintained under a 12-h light (˜300 lux) and 12-h dark cycle or at the Cole Eye Institute animal facility where they were. Mice were dark adapted overnight prior to all experiments. A cohort of Rdh8^−/−Abca4^−/− or C57BL/6J mice was used when they reached the age of 1 to 2 months, and both sexes were used evenly. All tested primary amines were suspended in 100 μl soybean oil with less than 10% (v/v) DMSO and were administered by oral gavage with a 22-gauge feeding needle. Experimental manipulations in the dark were done under dim red light transmitted through a Kodak No. 1 Safelight Filter (transmittance >560 nm).
After dark adaptation for 24 h, Abca4^−/−Rdh8^−/− mice with pupils dilated by 1% tropicamide were exposed to fluorescent light (10,000 lux; 150 W spiral lamp; Commercial Electric) for 30 min in a white paper bucket (Papersmith) and then kept in the dark for an additional 3 days. Development of retinal degeneration was then determined by ultra-high-resolution spectral domain OCT (SD-OCT; Bioptigen) and ERG as previously described.
To examine the ability of […] cause retinal damage in the absence of treatment with protective agents. Three days later retinas were imaged in vivo by optical coherence tomography, with preservation of outer nuclear layer thickness and light scattering properties serving as markers for retinal health. MB-001, which is capable of preventing light-induced retinal degeneration through both direct RPE65 inhibition as well as retinal sequestration served as a positive control for these experiments.

[1] = tested on: visual chromophore regeneration in C57BL6J mouse eyes; assay: visual chromophore recovery assay (ocular 11-cis-retinal by HPLC after bleach); type: in vivo; conditions: for visual chromophore regeneration: 10 μg/mouse oral gavage 24 h before light exposure (95% bleach), 6 h dark adaptation; for effect on 11-cis-retinal recovery / visual cycle function: 500 μg (0.5 mg/mouse) oral gavage 24 h before light exposure
Experimental: FIG. 4 illustrates inhibition of visual chromophore regeneration in C57BL6J mouse eyes by MB compounds. The MB drugs were administrated to mice by oral gavage 24 h prior to light exposure for 10 min. Then all mice recovered under darkness for 6 h.
as §1
After bright light exposure resulting in photoactivation of 95% of rhodopsin, mice were kept in the dark for 6 h. Then, the animals were euthanized and their eyes were collected and homogenized in 10 mM sodium phosphate buffer, pH 7.4, containing 50% methanol (v/v) and 40 mM hydroxylamine. The resulting mixture was extracted with 4 ml of hexanes.
Next, we tested the effects of the MB compound series on retinoid cycle function in the living mouse. […] After the light treatment, mice were allowed to dark adapt for 6 h before their ocular retinoid content was determined by HPLC. […] To examine the possibility that the lack of MB-008 efficacy at 24 h was due to insufficient concentrations resulting from a shorter elimination half-life or poorer bioavailability, we repeated the experiment with the mice subjected to light exposure 4 h after MB-008 administration. A 100 μg dose of MB-008 suppressed visual chromophore regeneration by ˜80%, supporting the idea that the retinal concentration of MB-008 could be sub-effective at the longer post-treatment light challenge.

RPE65 = RPE65 (Bos taurus, UniProt Q28175); assay: in vitro retinoid isomerase activity assay with bovine RPE microsomes; conditions: for times more potent compared to emixustat (racemic): RPE65 inhibition, bovine RPE microsomes; for inhibition against retinoid isomerization: up to concentrations of 50 μM
Experimental: Primary amines were pre-incubated with bovine RPE microsomes at room temperature for 5 min, then all-trans-retinol was added and the mixtures were incubated at 37° C. All incubation mixtures were quenched by the addition of methanol after 1 h of incubation. Inhibition of RPE65 enzymatic activity was measured as a decline in 11-cis-retinol production.
Synthesized primary amine (1 μl in DMF, with the final concentration ranging between 50 nM and 50 μM) was added to 10 mM Bis-Tris propane/HCl buffer, pH 7.4, containing 150 μg RPE microsomes, 1% BSA, 1 mM disodium pyrophosphate, and 20 μM aporetinaldehyde-binding protein 1 (CRALBP). The resulting mixture was pre-incubated at room temperature for 5 min. Then, all-trans-retinol (1 μl in DMF, at a final concentration of 20 μM) was added. The resulting mixture was incubated at 37° C. for 1 h. The reaction was quenched by adding 300 μl methanol, and products were extracted with 300 μl hexanes. Production of 11-cis-retinol was quantified by normal-phase HPLC with 10% (v/v) EtOAc in hexanes as the eluent at a flow rate of 1.4 ml/min. Retinoids were detected by monitoring their absorbance at 325 nm and quantified based on a standard curve representing the relationship between the amount of synthetic 11-cis-retinol standard and the area under the corresponding chromatographic peak.
To test these structural predictions, we examined the inhibitory activity of the compounds against RPE65 activity in an in vitro retinoid isomerase assay using bovine RPE microsomes as the enzyme source.

[2] = identification of atRAL Schiff base conjugates with MB compounds in mouse eyes; type: in vivo; conditions: Abca4−/−Rdh8−/− mice, 50 mg/kg oral gavage, bright light exposure 10 min; mass spectrometry versus standards
Experimental: FIGS. 6(A-B) illustrate identification of retinal Schiff base conjugates in Abca4^−/− Rdh8^−/− mice treated with MB-005 and MB-006. Following drug administration, mice were exposed to intense light for 10 min. After a 30 min recovery under darkness, animals were sacrificed and retinoids were extracted from the eyes. (A, B) Shown in the top panels are selective ion chromatograms for MB-005-retinal conjugates (A, at m/z=572.6) and MB-006-retinal conjugates (B, at m/z=588.6). Panels on the bottom show the mass spectra of the peaks coinciding with the retention times of their authentic standards. The insets display the MS/MS fragmentation patterns of the two imines, which were identical to the corresponding standards.
MB-005 or MB-006 (50 mg/kg) were administrated by oral gavage to Abca4^−/−Rdh8^−/− mice 24 h prior to light exposure. After exposure to fluorescent light for 10 min, animals were euthanized and their eyes were collected and homogenized in acetonitrile. After centrifugation, the supernatant was concentrated to 400 μl under vacuum. […]
With the effects of these compounds on visual cycle function established we next sought to examine their ability to form retinal-Schiff base conjugates in vivo. […] Retinoids were extracted and analyzed by mass spectrometry. […]

[3] = 1 mg per mouse oral gavage 24 h before light

Sequence of RPE65 (Q28175 whole entry): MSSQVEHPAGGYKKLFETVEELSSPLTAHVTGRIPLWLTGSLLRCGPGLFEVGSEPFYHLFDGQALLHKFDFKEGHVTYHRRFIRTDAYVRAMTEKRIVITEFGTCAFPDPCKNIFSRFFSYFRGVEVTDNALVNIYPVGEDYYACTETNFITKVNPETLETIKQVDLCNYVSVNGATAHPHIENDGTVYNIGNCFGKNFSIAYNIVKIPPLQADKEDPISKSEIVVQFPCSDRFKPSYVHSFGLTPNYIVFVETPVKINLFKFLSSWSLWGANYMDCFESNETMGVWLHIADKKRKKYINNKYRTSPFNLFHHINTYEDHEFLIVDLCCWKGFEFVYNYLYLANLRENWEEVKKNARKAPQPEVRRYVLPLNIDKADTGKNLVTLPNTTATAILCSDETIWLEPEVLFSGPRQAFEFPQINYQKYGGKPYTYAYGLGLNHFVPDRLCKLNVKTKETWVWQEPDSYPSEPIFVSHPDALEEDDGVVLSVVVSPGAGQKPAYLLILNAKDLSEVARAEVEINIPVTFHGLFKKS

## CC1=C(COc2cccc([C@H](O)CCN)c2)C(C)(C)CCC1 [MB-001, reference compound]
C57BL/6J mice
  dark-adapted ERG 6 hours after 95% bleach: responses to low luminance stimuli that were not different from background noise levels
Abca4−/−Rdh8−/− mice; 50 μg oral gavage 24 h before light, positive control
  protection against light-induced retinal degeneration: fully protective

## CCCC(CCC)COc1cccc([C@H](O)CCN)c1 [MB-004]
[1]
  visual chromophore regeneration: dramatically suppressed visual chromophore regeneration
C57BL/6J mice
  dark-adapted ERG 6 hours after 95% bleach: responses to low luminance stimuli that were not different from background noise levels
Abca4−/−Rdh8−/− mice; 25 μg oral gavage 24 h before 10,000 lux light, OCT 3 days later
  protective effect relative to MB-001: approximately 80%
RPE65
  IC50: 106 ± 16 nM
  times more potent compared to emixustat (racemic): approximately 2.2 times

## CC1=C(COc2cc(C(C)C)cc(C(O)CCN)c2)C(C)(C)CCC1 (stereo not drawn) [MB-007, 3-Amino-1-(3-isopropyl-5-((2,6,6-trimethylcyclohex-1-en-1-yl)methoxy)phenyl)propan-1-ol]
[1]; 6 h dark
  effect on 11-cis-retinal recovery / visual cycle function: minimal effects
[1]; two-fold higher dose than 500 μg (1 mg per mouse), oral gavage 24 h before light exposure
  inhibition of 11-cis-retinal recovery (suppression of visual chromophore regeneration): ~50%
Abca4−/−Rdh8−/− mice; [3]
  protection against light-induced retinal degeneration: no more protective than vehicle control
RPE65
  inhibition against retinoid isomerization: minimal or no inhibition

## CC(C)c1cc(OCC2CCCCC2)cc(C(O)CCN)c1 (stereo not drawn) [MB-006, 3-Amino-1-(3-(cyclohexylmethoxy)-5-isopropylphenyl)propan-1-ol]
[1]; 6 h dark
  effect on 11-cis-retinal recovery / visual cycle function: strongly suppressed visual cycle function
[1]; 500 μg oral gavage 24 h before light exposure
  visual chromophore production, % of the vehicle control: ~30%
[1]; 1000 μg oral gavage 24 h before light exposure
  visual chromophore production, % of the vehicle control: ~20%
C57BL/6J mice
  dark-adapted ERG 6 hours after 95% bleach: less incomplete recovery
[2]
  retinal Schiff base adducts in eye extracts: contained compounds matching the expected molecular weight of the respective Schiff base adducts
Abca4−/−Rdh8−/− mice; 0.5 mg per mouse oral gavage 24 h before light
  protection against light-induced retinal degeneration: not
Abca4−/−Rdh8−/− mice; [3]
  protection against light-induced retinal degeneration: protective
RPE65
  inhibition against retinoid isomerization: minimal or no inhibition

## CCCC(CCO)COc1cccc(C(O)CCN)c1 (mixture of isomers) [MB-008, 3-((3-(3-Amino-1-hydroxypropyl)phenoxy)methyl)hexan-1-ol]
[1]
  visual chromophore regeneration: recovered visual chromophore to a level comparable to vehicle-treated mice
[1]; 100 μg dose, light exposure 4 h after administration
  suppression of visual chromophore regeneration: ~80%
[1]; ten-fold higher dose than 10 μg, oral gavage 24 h before light exposure, 6 h dark
  suppression in visual cycle function: 30%
Abca4−/−Rdh8−/− mice; doses as high as 0.25 mg, administered 24 h prior to the light challenge
  protection against light-induced retinal degeneration: poorly protective
Abca4−/−Rdh8−/− mice; from 24 to 6 h
  effect of shortening the duration between administration and light challenge on protection: substantially improved the protective effects
Abca4−/−Rdh8−/− mice; shorter time period (6 h), dose ten-times higher than that used for MB-004
  protection against light-induced retinal degeneration: full protection
RPE65
  IC50: 189 ± 31 nM
  times more potent compared to emixustat (racemic): ~1.2 times
